Assay results reported in ChEMBL document CHEMBL2074120, “Hepatic uptake of bilirubin and its conjugates by the human organic anion transporter SLC21A6” (J Biol Chem, 2001).

Legend:
Type in all cases: functional, cell-based
[1] = biological target: T1, Solute carrier organic anion transporter family member 1B3 (Homo sapiens, UniProt Q9NPD5); assay: (§1) TP_TRANSPORTER: uptake in OATP8-expressing HEK293 cells; conditions: hek293
T1 sequence (Q9NPD5 whole entry): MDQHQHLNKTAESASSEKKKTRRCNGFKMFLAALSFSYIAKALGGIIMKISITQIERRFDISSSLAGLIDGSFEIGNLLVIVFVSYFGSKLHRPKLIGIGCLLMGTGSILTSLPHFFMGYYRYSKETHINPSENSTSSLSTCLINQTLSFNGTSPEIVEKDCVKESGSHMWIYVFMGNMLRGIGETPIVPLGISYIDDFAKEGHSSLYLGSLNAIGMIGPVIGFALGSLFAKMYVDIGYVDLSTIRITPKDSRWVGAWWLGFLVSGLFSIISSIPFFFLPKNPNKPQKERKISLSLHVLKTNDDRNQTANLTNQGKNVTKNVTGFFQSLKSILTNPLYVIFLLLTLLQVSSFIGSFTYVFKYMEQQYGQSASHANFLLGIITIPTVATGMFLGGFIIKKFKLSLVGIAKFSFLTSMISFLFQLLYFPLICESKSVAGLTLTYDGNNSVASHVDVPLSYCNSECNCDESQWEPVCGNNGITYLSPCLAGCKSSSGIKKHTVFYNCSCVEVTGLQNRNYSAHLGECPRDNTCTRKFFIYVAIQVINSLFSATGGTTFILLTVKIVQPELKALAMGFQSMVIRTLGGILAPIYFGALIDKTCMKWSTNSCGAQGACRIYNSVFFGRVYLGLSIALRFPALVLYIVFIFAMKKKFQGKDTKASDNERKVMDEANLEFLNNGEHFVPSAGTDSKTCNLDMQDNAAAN

[2] = biological target: T2, OATP8 (OATP1B3, SLCO1B3) (Homo sapiens, UniProt Q9NPD5); assay: as §1; conditions: HEK293 cells expressing OATP8
T2 sequence (Q9NPD5 whole entry): T1 sequence (Q9NPD5 whole entry)

[3] = biological target: T1, Solute carrier organic anion transporter family member 1B3; assay: TP_TRANSPORTER: inhibition of E217betaG uptake (E217betaG: 2 uM, Rifampicin: 75 uM) in OATP8-expressing HEK293 cells; conditions: hek293, 75 µM
[4] = biological target: T3, Solute carrier organic anion transporter family member 1B1 (Homo sapiens, UniProt Q9Y6L6); assay: TP_TRANSPORTER: inhibition of E217betaG uptake (E217betaG: 2 uM, Rifampicin: 75 uM) in OATP-C-expressing HEK293 cells; conditions: hek293, 75 µM
T3 sequence (Q9Y6L6 whole entry): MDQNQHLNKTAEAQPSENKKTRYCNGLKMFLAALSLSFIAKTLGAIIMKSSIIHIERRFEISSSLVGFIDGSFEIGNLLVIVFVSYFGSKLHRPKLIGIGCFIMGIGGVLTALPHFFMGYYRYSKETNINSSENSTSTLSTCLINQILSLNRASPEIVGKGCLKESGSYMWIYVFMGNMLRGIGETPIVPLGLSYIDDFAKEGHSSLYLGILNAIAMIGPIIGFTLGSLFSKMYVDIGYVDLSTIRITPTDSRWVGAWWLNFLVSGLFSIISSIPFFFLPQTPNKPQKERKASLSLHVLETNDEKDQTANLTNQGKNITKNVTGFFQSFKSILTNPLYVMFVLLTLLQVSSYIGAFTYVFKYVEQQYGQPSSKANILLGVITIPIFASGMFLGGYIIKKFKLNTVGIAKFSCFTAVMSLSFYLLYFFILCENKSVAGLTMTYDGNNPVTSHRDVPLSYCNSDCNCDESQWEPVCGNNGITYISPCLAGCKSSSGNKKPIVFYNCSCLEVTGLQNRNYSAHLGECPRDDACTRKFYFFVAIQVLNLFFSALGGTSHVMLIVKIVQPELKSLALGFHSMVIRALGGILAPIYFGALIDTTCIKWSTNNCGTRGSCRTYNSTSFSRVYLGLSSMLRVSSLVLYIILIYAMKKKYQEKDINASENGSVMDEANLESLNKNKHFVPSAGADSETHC

[5] = biological target: T1, Solute carrier organic anion transporter family member 1B3; assay: TP_TRANSPORTER: inhibition of E217betaG uptake (E217betaG: 2 uM, Rifamycin SV: 50 uM) in OATP8-expressing HEK293 cells; conditions: hek293, 50 µM
[6] = biological target: T3, Solute carrier organic anion transporter family member 1B1; assay: TP_TRANSPORTER: inhibition of E217betaG uptake (E217betaG: 2 uM, Rifamycin SV: 50 uM) in OATP-C-expressing HEK293 cells; conditions: hek293, 50 µM
[7] = biological target: T3, Solute carrier organic anion transporter family member 1B1; assay: (§2) TP_TRANSPORTER: uptake in OATP-C-expressing HEK293 cells
[8] = biological target: T3, Solute carrier organic anion transporter family member 1B1; assay: TP_TRANSPORTER: inhibition of Bilirubin uptake (Bilirubin: 10 uM, BSP: 5 uM) in OATP-C-expressing HEK293 cells; conditions: hek293, 5 µM
[9] = biological target: T1, Solute carrier organic anion transporter family member 1B3; assay: TP_TRANSPORTER: inhibition of E217betaG uptake (E217betaG: 2 uM, ICG: 10 uM) in OATP8-expressing HEK293 cells; conditions: hek293, 10 µM
[10] = biological target: T3, Solute carrier organic anion transporter family member 1B1; assay: TP_TRANSPORTER: inhibition of E217betaG uptake (E217betaG: 2 uM, ICG: 10 uM) in OATP-C-expressing HEK293 cells; conditions: hek293, 10 µM
[11] = substrate: C=CC1=C(C)/C(=C/c2[nH]c(Cc3[nH]c(/C=C4\NC(=O)C(C)=C4C=C)c(C)c3CCC(=O)O[C@@H]3OC(C(=O)O)[C@@H](O)C(O)C3O)c(CCC(=O)O)c2C)NC1=O; assay: as §2
[12] = substrate: C=CC1=C(C)/C(=C/c2[nH]c(Cc3[nH]c(/C=C4\NC(=O)C(C)=C4C=C)c(C)c3CCC(=O)O[C@@H]3O[C@@H](C(=O)O)[C@H](O)[C@@H](O)[C@@H]3O)c(CCC(=O)O[C@@H]3O[C@H](C(=O)O)[C@H](O)[C@H](O)[C@@H]3O)c2C)NC1=O; assay: as §2
[13] = substrate: C[C@]12CC[C@@H]3c4ccc(OS(=O)(=O)O)cc4CC[C@H]3[C@@H]1CCC2=O; assay: as §2
[14] = substrate: O=C1OC(c2ccc(O)c(S(=O)(=O)O)c2)(c2ccc(O)c(S(=O)(=O)O)c2)c2c(Br)c(Br)c(Br)c(Br)c21; assay: as §2
[15] = substrate: [H][C@@]12CC=C3C[C@@H](OS(=O)(=O)O)CC[C@]3(C)[C@@]1([H])CC[C@]1(C)C(=O)CC[C@@]21[H]; assay: as §2

Molecule: C[C@]12CC[C@@H]3c4ccc(OS(=O)(=O)O)cc4CC[C@H]3[C@@H]1CCC2=O [ESTRONE SULFURIC ACID]
- Activity [1]: is not a substrate [-]

Molecule: C=CC1=C(C)/C(=C/c2[nH]c(Cc3[nH]c(/C=C4\NC(=O)C(C)=C4C=C)c(C)c3CCC(=O)O[C@@H]3OC(C(=O)O)[C@@H](O)C(O)C3O)c(CCC(=O)O)c2C)NC1=O (some centres not stated) [BILIRUBIN MONOGLUCURONIDE]
- Km [2]: 0.5 µM

Molecule: CO[C@H]1/C=C/O[C@@]2(C)Oc3c(C)c(O)c4c(O)c(c(/C=N/N5CCN(C)CC5)c(O)c4c3C2=O)NC(=O)/C(C)=C\C=C\[C@H](C)[C@H](O)[C@@H](C)[C@@H](O)[C@@H](C)[C@H](OC(C)=O)[C@@H]1C [RIFAMPIN]
- Activity [3]: inhibitor [(at a rough estimate) 10 % of control]
- Activity [4]: inhibitor [(at a rough estimate) 20 % of control]

Molecule: CO[C@H]1/C=C/O[C@@]2(C)Oc3c(C)c(O)c4c(O)c(cc(O)c4c3C2=O)NC(=O)/C(C)=C\C=C\[C@H](C)[C@H](O)[C@@H](C)[C@@H](O)[C@@H](C)[C@H](OC(C)=O)[C@@H]1C [RIFAMYCIN]
- Activity [5]: inhibitor [(at a rough estimate) 35 % of control]
- Activity [6]: inhibitor [(at a rough estimate) 20 % of control]

Molecule: C=CC1=C(C)/C(=C/c2[nH]c(Cc3[nH]c(/C=C4\NC(=O)C(C)=C4C=C)c(C)c3CCC(=O)O)c(CCC(=O)O)c2C)NC1=O [BILIRUBIN]
- Activity [7]: substrate [+]

Molecule: O=C1OC(c2ccc(O)c(S(=O)(=O)[O-])c2)(c2ccc(O)c(S(=O)(=O)[O-])c2)c2c(Br)c(Br)c(Br)c(Br)c21.[Na+].[Na+] [SULFOBROMOPHTHALEIN SODIUM]
- Activity [8]: inhibitor [(at a rough estimate) 15 % of control]

Molecule: C=CC1=C(C)/C(=C/c2[nH]c(Cc3[nH]c(/C=C4\NC(=O)C(C)=C4C=C)c(C)c3CCC(=O)O[C@@H]3O[C@@H](C(=O)O)[C@H](O)[C@@H](O)[C@@H]3O)c(CCC(=O)O[C@@H]3O[C@H](C(=O)O)[C@H](O)[C@H](O)[C@@H]3O)c2C)NC1=O
- Activity [1]: is not a substrate [-]

Molecule: CC1(C)C(/C=C/C=C/C=C/C=C2/N(CCCCS(=O)(=O)[O-])c3ccc4ccccc4c3C2(C)C)=[N+](CCCCS(=O)(=O)[O-])c2ccc3ccccc3c21.[Na+] [INDOCYANINE GREEN]
- Activity [9]: is not an inhibitor [-]
- Activity [10]: inhibitor [(at a rough estimate) 5 % of control]

Molecule: C[C@]12CC[C@H](OS(=O)(=O)O)CC1=CC[C@@H]1[C@@H]2CC[C@]2(C)C(=O)CC[C@@H]12 [PRASTERONE SULFURIC ACID]
- Km [2]: > 30 µM

B1: Solute carrier organic anion transporter family member 1B1 (Homo sapiens) (protein)
chain: T3 sequence (Q9Y6L6 whole entry)
- Km [11]: 0.1 µM
- Km [12]: 0.28 µM
- Km [13]: 12.5 µM
- Km [14]: 0.14 µM
- Km [15]: 21.5 µM
